Assay results published in patent EP0536424A1, “NOVEL BENZOPYRAN DERIVATIVE” (Japan Tobacco Inc., priority 1991, dated 1992).
pIC50: −log10 of the molar value. Where two headings read alike, the source gives them in different places.

Experiments:
coronary blood flow rate = assay: Action on the coronary blood flow rate in dog (anesthetized, left coronary artery perfused with femoral arterial blood); format: in vivo; settings: administered into the coronary artery; for ED 50: dose increasing coronary blood flow rate by 50% of the reaction caused by niphedipine 1 µg (set at 100%); for Durationng: time during which the compound produced at least 50% of its efficacy at the ED₅₀ dosage
Protocol: Dogs with ether sex were anesthetized with pentobarbital (30 mg/kg,intravenous administration), followed by intravenous heparin administration (500 U/kg) to the dogs under artificial respiration. Then, according to Yago's method described in Folia pharmacol. japon., 57,380 (1961), the left coronary artery was perfused with the right femoral arterial blood so as to measure the blood perfusion amount with an electromagnetic blood flow meter. The example compound was administered into the coronary artery by using a micro syringe just before a stainless steel cannula inserted into the coronary artery. The increase in the coronary blood flow rate caused by the example compound was determined by standardizing the reactivity among the specimen subject, with the reaction caused by the niphedipine administration (1 µg) into the coronary artery of the specimen subject being set at 100%. To be more specific, the intensity of the action due to the example compound was determined in terms of ED₅₀ required for increasing the coronary blood flow rate by 50% on the basis of the reaction caused by niphedipine administered into the coronary artery in an amount of 1 µg. Further, the duration of the effect produced by the example compound was determined in terms of the time (minutes) during which the compound produced at least 50% of efficacy on the basis that the efficacy of the compound in the ED₅₀ dosage noted above was set at 100%. […]

[1] = test system: aorta thoracica of a male Wister rat; assay: Blood vessel relaxing action (relaxation of phenylephrine-contracted, endothelium-denuded spiral strip); settings: concentration inhibiting 50% of the contraction achieved by phenylephrine (10⁻⁶ M), compound 10⁻⁸ to 10⁻⁵ M added cumulatively, 37°C, read-out: IC₅₀
Protocol: Preparation of the extracted blood vessel sample and the experiment were conducted by the methods of Toda et al. described in J. Cardiovasc. Pharmacol., 7,1118 (1985). The aorta thoracica of a male Wister rat was used as a sample. To be more specific, a spiral piece was prepared by peeling endothelium about 1 cm long from the artery to provide the sample. The endothelium was peeled off by rubbing with a swab. A Krebs-Hensterite solution of 37°C saturated with 95% O₂ and 5% CO₂ was used as a nutrient solution. After application of 1g as suspending load to the sample, changes in tension were measured by rectigraph via an isometric transducer. After the aorta thoracica was contracted by phenylephrine (10⁻⁶ M), a compound to be examined (an example compound) of 10⁻⁸ to 10⁻⁵ M was cumulatively added to determine the relaxing action of the compound quantitatively. The relaxing effect of the example compound was determined in terms of the concentration IC₅₀ of the compound required for inhibiting 50% of the contraction achieved by phenylephrine (10⁻⁶ M). Lema Kalin was used as reference compound A. On the other hand, reference compound B was provided by N'-cyano-N-(trans-6-cyano-3,4-dihydro-2,2-dimethyl-3-hydroxy-2H-1-benzopyran-4-yl)-benzamidine. […]

| SMILES | ED 50 (coronary blood flow rate) [µg] | Durationng (coronary blood flow rate) [minuted] | pIC50 ([1]; Rattus norvegicus) | pIC50 [1] |
| --- | --- | --- | --- | --- |
| CC1(C)Oc2ccc(C#N)cc2[C@@H](NC(=NC#N)c2ccc(F)cc2)[C@@H]1O (relative stereo) [Example 16, N'-cyano-N-(trans-6-cyano-3,4-dihydro-2,2-dimethyl-3-hydroxy-2H-1-benzopyran-4-yl)-4-fluorobenzamidine] | 1.5 | 2.5 | 7.22 | – |
| CC1(C)Oc2ccc(C#N)cc2[C@@H](NC(=NC#N)c2ccccc2)[C@@H]1O (relative stereo) [Reference Compound B, N'-cyano-N-(trans-6-cyano-3,4-dihydro-2,2-dimethyl-3-hydroxy-2H-1-benzopyran-4-yl)-benzamidine, reference compound] | 4.2 | 1.9 | 6.00 | – |
| CC1(C)Oc2ccc(C#N)cc2[C@@H](NC(=N[N+](=O)[O-])c2ccccn2)[C@@H]1O (relative stereo) [Example 14, N-(trans-6-cyano-3,4-dihydro-2,2-dimethyl-3-hydroxy-2H-1-benzopyran-4yl)-N'-nitro-2-pyridinecarboxamidine] | – | – | 6.00 | – |
| CC1(C)Oc2ccc(C#N)cc2[C@@H](NC(=NC#N)c2cccnc2)[C@@H]1O (relative stereo) [Example 3, N'-cyano-N-(trans-6-cyano-3,4-dihydro-2,2-dimethyl-3-hydroxy-2H-1benzopyran-4-yl]-3-pyridinecarboxamidine] | 1.9 | 4.0 | 6.22 | – |
| CC1(C)Oc2ccc(C#N)cc2[C@@H](N2CCCC2=O)[C@@H]1O [Reference Compound A, Lema Kalin, reference compound] | 1.1 | 2.5 | – | 6.40 |
